Laboratory results reported in patent publication US5422350A, “Nitrogen substituted acridine and cytochrome P450 inhibitors and methods of use” (priority 1992, dated 1995).

How the values were obtained:
[1] = In vitro metabolism of 14C-tacrine in rat liver microsomes; conditions: for TAC: w/out NADPH
Method: Total reaction volume was 3 mL. Reactions were stopped by freezing in liquid nitrogen or dry-ice acetone. […] D. J. Waxman and L. Axaroff, "Phenobarbital induction of cytochrome P-450 Gene Expression", BIOCHEM J, Vol. 281, pp. 577-592 (1992); P. Soucek and I. Gut, supra.

[2] = Clinical drug interaction study, tacrine with cimetidine; type: in vivo, human; conditions: 40 mg tacrine with 300-mg four times a day cimetidine vs tacrine alone
Excerpt: A. Somogyi and M. Muirhead, "Pharmacokinetic Interactions of Cimetidine", CLIN. PHARMACOKIN., Vol. 12, pp. 321-366 (1987).

[3] = MC induced Rat, w/NADPH, 60 min
[4] = Noninduced Rat, w/NADPH, 60 min
[5] = PB induced Rat, w/NADPH, 60 min

Cl.Nc1c2c(nc3ccccc13)CCCC2.O [Tacrine, 1,2,3,4-tetrahydro-9-acridinamine monohydrate monohydrochloride]
1-OH ([1]; I induced Rat, w/NADPH, 60 min): 1.57 nmole equivalents
POLAR UNKS ([1]; I induced Rat, w/NADPH, 60 min): 0.083 nmole equivalents
TAC ([1]; I induced Rat, 60 min): 1.14 nmole equivalents
1-OH [1, 3]: 0.790 nmole equivalents
4-OH [1, 3]: 0.018 nmole equivalents
POLAR UNKS [1, 3]: 0.009 nmole equivalents
UNKS [1, 3]: 0.091 nmole equivalents
TAC ([1]; MC induced Rat, 60 min): 1.16 nmole equivalents
1-OH [1, 4]: 0.994 nmole equivalents
2-OH [1, 4]: 0.088 nmole equivalents
POLAR UNKS [1, 4]: 0.022 nmole equivalents
TAC ([1]; Noninduced Rat, 60 min): 1.22 nmole equivalents
1-OH [1, 5]: 1.15 nmole equivalents
2-OH [1, 5]: 0.144 nmole equivalents
POLAR UNKS [1, 5]: 0.026 nmole equivalents
TAC ([1]; PB induced Rat, 60 min): 1.20 nmole equivalents
1-hydroxytacrine produced ([1]; rat vs human preparations): more 1-hydroxytacrine produced as compared to human preparations
higher plasma concentrations [2]: approximately 40%
